Results as given in patent publication US8435980B2 (AbbVie Inc., priority 2009, dated 2013).
pKi: −log10 of the molar value.

Each compound was assayed against T1, Cdc7 (BEV coexpressed huCDC7/DBF4) (Homo sapiens, UniProt O00311) (assay: Cdc7 enzyme inhibition assay ([33P]ATP, biotinylated peptide substrate, FlashPlate)). Details: not given.
T1 construct: made in house; host or cells: BEV (baculovirus expression vector) co-expression; insect cells are implied but no cell line is named
T1 sequence (O00311 whole entry): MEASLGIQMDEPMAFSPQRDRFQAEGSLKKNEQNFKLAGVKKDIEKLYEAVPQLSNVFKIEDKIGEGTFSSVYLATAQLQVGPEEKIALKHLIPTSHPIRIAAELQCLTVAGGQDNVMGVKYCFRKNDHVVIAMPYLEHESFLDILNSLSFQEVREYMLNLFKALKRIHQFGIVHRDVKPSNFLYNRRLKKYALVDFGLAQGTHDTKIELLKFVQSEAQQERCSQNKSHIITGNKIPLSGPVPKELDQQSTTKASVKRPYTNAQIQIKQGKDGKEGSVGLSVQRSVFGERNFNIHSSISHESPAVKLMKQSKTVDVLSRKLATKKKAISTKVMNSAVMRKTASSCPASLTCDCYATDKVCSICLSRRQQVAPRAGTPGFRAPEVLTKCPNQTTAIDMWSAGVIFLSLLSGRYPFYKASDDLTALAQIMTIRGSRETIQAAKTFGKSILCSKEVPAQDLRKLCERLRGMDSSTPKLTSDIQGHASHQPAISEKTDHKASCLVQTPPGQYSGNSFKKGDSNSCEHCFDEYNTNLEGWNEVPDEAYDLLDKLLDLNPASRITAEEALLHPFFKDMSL
T1 sequence (Q9UBU7 whole entry partner): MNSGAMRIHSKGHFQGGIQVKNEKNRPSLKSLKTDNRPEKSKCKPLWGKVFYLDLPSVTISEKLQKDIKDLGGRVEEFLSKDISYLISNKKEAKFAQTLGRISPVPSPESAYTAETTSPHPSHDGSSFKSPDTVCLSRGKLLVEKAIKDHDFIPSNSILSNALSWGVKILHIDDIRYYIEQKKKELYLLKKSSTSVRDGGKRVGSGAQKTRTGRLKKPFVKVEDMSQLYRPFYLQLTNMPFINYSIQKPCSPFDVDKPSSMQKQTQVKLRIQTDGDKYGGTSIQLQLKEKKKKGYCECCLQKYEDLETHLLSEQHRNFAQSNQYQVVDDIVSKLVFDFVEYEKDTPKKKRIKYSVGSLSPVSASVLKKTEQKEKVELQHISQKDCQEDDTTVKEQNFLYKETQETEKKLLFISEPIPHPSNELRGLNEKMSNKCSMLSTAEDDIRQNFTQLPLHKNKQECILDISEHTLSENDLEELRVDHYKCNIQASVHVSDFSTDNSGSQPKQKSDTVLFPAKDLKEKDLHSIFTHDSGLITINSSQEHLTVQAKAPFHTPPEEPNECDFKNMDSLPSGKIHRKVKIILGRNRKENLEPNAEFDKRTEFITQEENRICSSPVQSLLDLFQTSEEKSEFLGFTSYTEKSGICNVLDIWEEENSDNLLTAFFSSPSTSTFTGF
Type: biochemical
Procedure: Cdc7 (BEV coexpressed huCDC7/DBF4) is prepared internally. Cdc7 assays are conducted as follows with final concentrations as listed. […] Reactions are quenched after 1 hr by the addition of 90 μL stop buffer (50 mM EDTA, 2M NaCl). […] (Ki) for exemplary compounds.
`Clc1cc(-c2c[nH]c3ncccc23)nc(NC2CCCCC2)n1` [Example 49, 4-chloro-N-cyclohexyl-6-(1H-pyrrolo[2,3-b]pyridin-3-yl)pyrimidin-2-amine] was tested, and the pKi was greater than 8.00.
`OC1CCCCC1Nc1cc(-c2c[nH]c3ncccc23)cc(Cl)n1` (centres unmarked) [Example 9, 2-{[6-chloro-4-(1H-pyrrolo[2,3-b]pyridin-3-yl)pyridin-2-yl]amino}cyclohexanol] was tested, and the pKi was greater than 8.00.
With `Clc1cc(-c2c[nH]c3ncccc23)cc(NCC2CCCOC2)n1` (centres unmarked) [Example 28, 6-chloro-4-(1H-pyrrolo[2,3-b]pyridin-3-yl)-N-(tetrahydro-2H-pyran-3-ylmethyl)pyridin-2-amine] the pKi was 7.00 to 8.00.
`COC1CCCCC1Nc1cc(-c2c[nH]c3ncccc23)cc(Cl)n1` (centres unmarked) [Example 16, 6-chloro-N-(2-methoxycyclohexyl)-4-(1H-pyrrolo[2,3-b]pyridin-3-yl)pyridin-2-amine] gave a pKi of 7.00 to 8.00.
`CC(=O)NC1CCC(Nc2cc(-c3c[nH]c4ncccc34)cc(Cl)n2)CC1` (centres unmarked) [Example 22, N-(4-{[6-chloro-4-(1H-pyrrolo[2,3-b]pyridin-3-yl)pyridin-2-yl]-amino}cyclohexyl)acetamide] showed a pKi greater than 8.00.
With `CC(O)CNc1cc(-c2c[nH]c3ncccc23)cc(Cl)n1` (centres unmarked) [Example 39, 1-{[6-chloro-4-(1H-pyrrolo[2,3-b]pyridin-3-yl)pyridin-2-yl]amino}propan-2-ol] the pKi was 7.00 to 8.00.

Same assay, conditions: Table 3; enzyme inhibition data (Ki)
Compound `Clc1cc(-c2c[nH]c3ncccc23)cc(NCC2CCCN(C3CCC3)C2)n1` (centres unmarked) [Example 95, 6-chloro-N-[(1-cyclobutylpiperidin-3-yl)methyl]-4-(1H-pyrrolo[2,3-b]pyridin-3-yl)pyridin-2-amine] has a pKi greater than 8.00.
With `CCN1CCC(C(=O)N[C@H]2CC[C@H](Nc3cc(-c4c[nH]c5ncccc45)cc(Cl)n3)CC2)C1` (relative stereo) [Example 326, N-(trans-4-{[6-chloro-4-(1H-pyrrolo[2,3-b]pyridin-3-yl)pyridin-2-yl]amino}cyclohexyl)-1-ethylpyrrolidine-3-carboxamide] the pKi was greater than 8.00.
`Clc1cc(-c2c[nH]c3ncccc23)cc(N[C@H]2CC[C@H](NC3CCNCC3)CC2)n1` [Example 357, trans-N-[6-chloro-4-(1H-pyrrolo[2,3-b]pyridin-3-yl)pyridin-2-yl]-N′-(piperidin-4-yl)cyclohexane-1,4-diamine] was tested, and the pKi was greater than 8.00.
`CCCS(=O)(=O)NC1CCCC(Nc2cc(-c3c[nH]c4ncccc34)cc(Cl)n2)C1` (centres unmarked) [Example 77, N-(3-{[6-chloro-4-(1H-pyrrolo[2,3-b]pyridin-3-yl)pyridin-2-yl]amino}cyclohexyl)propane-1-sulfonamide] was tested, and the pKi was greater than 8.00.
`CN(C)CC(=O)NC1CCCC(Nc2cc(-c3c[nH]c4ncccc34)cc(Cl)n2)C1` (centres unmarked) [Example 118, N-(3-{[6-chloro-4-(1H-pyrrolo[2,3-b]pyridin-3-yl)pyridin-2-yl]amino}cyclohexyl)-N^2,N^2-dimethylglycinamide] was tested, and the pKi was greater than 8.00.
`O=C(NC1CCCC(Nc2cc(-c3c[nH]c4ncccc34)cc(Cl)n2)C1)C1CCNC1` (centres unmarked) [Example 343, N-(3-{[6-chloro-4-(1H-pyrrolo[2,3-b]pyridin-3-yl)pyridin-2-yl]amino}cyclohexyl)pyrrolidine-3-carboxamide] gave a pKi greater than 8.00.
In the case of `NCCNc1nc(Cl)cc(-c2c[nH]c3ncccc23)n1` [Example 466, N-[4-chloro-6-(1H-pyrrolo[2,3-b]pyridin-3-yl)pyrimidin-2-yl]ethane-1,2-diamine], the pKi was greater than 8.00.
`OCCCCCNc1cc(-c2c[nH]c3ncccc23)cc(Cl)n1` [Example 377, 5-{[6-chloro-4-(1H-pyrrolo[2,3-b]pyridin-3-yl)pyridin-2-yl]amino}pentan-1-ol] showed a pKi greater than 8.00.
Work on `O=S(=O)(N[C@H]1CC[C@H](Nc2cc(-c3c[nH]c4ncc(-c5cccnc5)cc34)cc(Cl)n2)CC1)C1CC1` [Example 453, N-[trans-4-({6-chloro-4-[5-(pyridin-3-yl)-1H-pyrrolo[2,3-b]pyridin-3-yl]pyridin-2-yl}amino)cyclohexyl]cyclopropanesulfonamide] yielded a pKi greater than 8.00.
`CC(=O)NC1CCC(N(C(C)=O)[C@H]2CC[C@H](Nc3cc(-c4c[nH]c5ncccc45)cc(Cl)n3)CC2)CC1` (relative stereo) [Example 365, N-[4-(acetylamino)cyclohexyl]-N-(trans-4-{[6-chloro-4-(1H-pyrrolo[2,3-b]pyridin-3-yl)pyridin-2-yl]amino}cyclohexyl)acetamide] showed a pKi greater than 8.00.
For `O=C(Nc1cc(-c2c[nH]c3ncccc23)cc(Cl)n1)C1CCNCC1` [Example 112, N-[6-chloro-4-(1H-pyrrolo[2,3-b]pyridin-3-yl)pyridin-2-yl]piperidine-4-carboxamide], the pKi was greater than 8.00.
Work on `Clc1cc(-c2c[nH]c3ncccc23)cc(NC2CCCC(NC3CCC3)C2)n1` (centres unmarked) [Example 68, N-[6-chloro-4-(1H-pyrrolo[2,3-b]pyridin-3-yl)pyridin-2-yl]-1-N′-cyclobutylcyclohexane-1,3-diamine] yielded a pKi greater than 8.00.
`Cn1cc(-c2cnc3[nH]cc(-c4cc(Cl)nc(NC5CCCCC5)c4)c3c2)cn1` [Example 176, 6-chloro-N-cyclohexyl-4-[5-(1-methyl-1H-pyrazol-4-yl)-1H-pyrrolo[2,3-b]pyridin-3-yl]pyridin-2-amine] gave a pKi greater than 8.00.
For `O=C(CN1CCCC1)NC1CCCC(Nc2cc(-c3c[nH]c4ncccc34)cc(Cl)n2)C1` (centres unmarked) [Example 130, N-(3-{[6-chloro-4-(1H-pyrrolo[2,3-b]pyridin-3-yl)pyridin-2-yl]amino}cyclohexyl)-2-(pyrrolidin-1-yl)acetamide], the pKi was greater than 8.00.
Compound `COc1ccnc2[nH]cc(-c3cc(Cl)nc(NC4CCCCC4)c3)c12` [Example 247, 6-chloro-N-cyclohexyl-4-(4-methoxy-1H-pyrrolo[2,3-b]pyridin-3-yl)pyridin-2-amine] has a pKi greater than 8.00.
For `O=C(Nc1ccccc1)N[C@H]1CC[C@H](Nc2nc(Cl)cc(-c3c[nH]c4ncccc34)n2)CC1` [Example 281, 1-(trans-4-{[4-chloro-6-(1H-pyrrolo[2,3-b]pyridin-3-yl)pyrimidin-2-yl]amino}cyclohexyl)-3-phenylurea], the pKi was greater than 8.00.
Work on `O=C(N[C@H]1CC[C@H](Nc2cc(-c3c[nH]c4ncccc34)cc(Cl)n2)CC1)C1CN(Cc2cccnc2)C1` [Example 209, N-(trans-4-{[6-chloro-4-(1H-pyrrolo[2,3-b]pyridin-3-yl)pyridin-2-yl]amino}cyclohexyl)-1-(pyridin-3-ylmethyl)azetidine-3-carboxamide] yielded a pKi greater than 8.00.
`Oc1cnc2[nH]cc(-c3cc(Cl)nc(NC4CCCCC4)c3)c2c1` [Example 180, 3-[2-chloro-6-(cyclohexylamino)pyridin-4-yl]-1H-pyrrolo[2,3-b]pyridin-5-ol] gave a pKi greater than 8.00.
For `O=C(N[C@H]1CC[C@H](Nc2cc(-c3c[nH]c4ncccc34)cc(Cl)n2)CC1)C1CN(Cc2ccc(Cl)cc2)C1` [Example 207, 1-(4-chlorobenzyl)-N-(trans-4-{[6-chloro-4-(1H-pyrrolo[2,3-b]pyridin-3-yl)pyridin-2-yl]amino}cyclohexyl)azetidine-3-carboxamide], the pKi was greater than 8.00.
In the case of `NS(=O)(=O)c1cccc(-c2cnc3[nH]cc(-c4cc(Cl)nc(N[C@H]5CC[C@H](NS(=O)(=O)C6CC6)CC5)c4)c3c2)c1` [Example 454, 3-{3-[2-chloro-6-({trans-4-[(cyclopropylsulfonyl)amino]cyclohexyl}amino)pyridin-4-yl]-1H-pyrrolo[2,3-b]pyridin-5-yl}benzenesulfonamide], the pKi was greater than 8.00.
For `N[C@H]1CC[C@H](Nc2cc(-c3c[nH]c4ncc(OCCc5ccccn5)cc34)cc(Cl)n2)CC1` [Example 427, trans-N-(6-chloro-4-{5-[2-(pyridin-2-yl)ethoxy]-1H-pyrrolo[2,3-b]pyridin-3-yl}pyridin-2-yl)cyclohexane-1,4-diamine], the pKi was greater than 8.00.
`Clc1cc(-c2c[nH]c3ncccc23)cc(Nc2ccc(N3CCN(CC4CCCCC4)CC3)cc2)n1` [Example 450, 6-chloro-N-{4-[4-(cyclohexylmethyl)piperazin-1-yl]phenyl}-4-(1H-pyrrolo[2,3-b]pyridin-3-yl)pyridin-2-amine] was tested, and the pKi was greater than 8.00.
Compound `COc1cnc2[nH]cc(-c3cc(Cl)nc(NC4CCC(C5CCNCC5)CC4)c3)c2c1` (centres unmarked) [Example 236, 6-chloro-4-(5-methoxy-1H-pyrrolo[2,3-b]pyridin-3-yl)-N-[4-(piperidin-4-yl)cyclohexyl]pyridin-2-amine] has a pKi greater than 8.00.
`O=C(CN1CCN(C2CCCCC2)CC1)N[C@H]1CC[C@H](Nc2cc(-c3c[nH]c4ncccc34)cc(Cl)n2)CC1` [Example 231, N-(trans-4-{[6-chloro-4-(1H-pyrrolo[2,3-b]pyridin-3-yl)pyridin-2-yl]amino}cyclohexyl)-2-(4-cyclohexylpiperazin-1-yl)acetamide] showed a pKi greater than 8.00.
`Cc1noc(C)c1S(=O)(=O)NC1CCCC(Nc2cc(-c3c[nH]c4ncccc34)cc(Cl)n2)C1` (centres unmarked) [Example 307, N-(3-{[6-chloro-4-(1H-pyrrolo[2,3-b]pyridin-3-yl)pyridin-2-yl]amino}cyclohexyl)-3,5-dimethyl-1,2-oxazole-4-sulfonamide] showed a pKi greater than 8.00.
`CN1CCCC(CNc2cc(-c3c[nH]c4ncccc34)cc(Cl)n2)C1` (centres unmarked) [Example 146, 6-chloro-N-[(1-methylpiperidin-3-yl)methyl]-4-(1H-pyrrolo[2,3-b]pyridin-3-yl)pyridin-2-amine] was tested, and the pKi was greater than 8.00.
`NC1CCC(CC2CCC(Nc3cc(-c4c[nH]c5ncccc45)cc(Cl)n3)CC2)CC1` (centres unmarked) [Example 143, N-{4-[(4-aminocyclohexyl)methyl]cyclohexyl}-6-chloro-4-(1H-pyrrolo[2,3-b]pyridin-3-yl)pyridin-2-amine] was tested, and the pKi was greater than 8.00.
In the case of `Clc1cc(-c2c[nH]c3ncc(-c4cncnc4)cc23)cc(NC2CCCCC2)n1` [Example 243, 6-chloro-N-cyclohexyl-4-[5-(pyrimidin-5-yl)-1H-pyrrolo[2,3-b]pyridin-3-yl]pyridin-2-amine], the pKi was greater than 8.00.
With `COc1cnc2[nH]cc(-c3cc(Cl)nc(NC4CCC(CC5CCC(NC(=O)C6CC6)CC5)CC4)c3)c2c1` (centres unmarked) [Example 240, N-[4-[(4-{[6-chloro-4-(5-methoxy-1H-pyrrolo[2,3-b]pyridin-3-yl)pyridin-2-yl]amino}cyclohexyl)methyl]cyclohexyl]cyclopropanecarboxamide] the pKi was greater than 8.00.
